Reference: article PMC9741454, “Selective Structural Derivatization of Flavonoid Acetamides Significantly Impacts Their Bioavailability and Antioxidant Properties” (Molecules, 2022)
Where “and” joins values, the source holds several entries; their conditions need not be identical. Equal values may be shown once.

Key:
[1] = DPPH free radical scavenging assay; details: relative IC50, 30 min in the dark, absorbance at 517 nm, methanolic DPPH
Description: The stock solutions of the flavonoid acetamide derivatives were prepared in dimethyl sulfoxide. A fresh batch of 50 µM DPPH radical solution was prepared in methanol. The DPPH free radical scavenging activities of the flavonoid acetamide derivatives were determined using our previously reported literature procedure.
Into an amber vial, 1.00 × 10^2 µL solution of the flavonoid acetamide derivative in dimethyl sulfoxide was added into a 3.00 × 10^3 µL of a fresh batch of methanolic DPPH solution. This reaction mixture was incubated, away from light, for half an hour. The absorbance of the resultant solution was read on a UV-Vis spectrophotometer, λmax = 517 nm. This experiment was done across several concentrations to obtain the concentration-based antioxidant activity data which was subsequently used to calculate the relative half-maximal inhibitory concentration (IC50) values.
Given the observed variation of the stability of the DPPH free radical across different solvent vehicles, the stability of the DPPH free radicals was established in both methanol and dimethyl sulfoxide solvents. The percentage DPPH free radical scavenging activity of the flavonoid acetamide derivatives was computed against dimethyl sulfoxide, as per Equation (3). (3) % DPPH RSA=Absorbance of control−Absorbance of sample /Absorbance of control×100
Absorbance control is the absorbance of the blank methanolic DPPH sample with DMSO. The absorbance values were obtained at λmax = 517 nm.
The % RSA obtained was plotted and used to obtain the relative half-maximal inhibitory concentration (IC50) values, which were double confirmed using verified online computational tools.
The 2,2-diphenyl-1-picrylhydrazyl (DPPH) assay was used to evaluate the free radical scavenging capacity of the flavonoid acetamide derivatives. This assay is based on the colorimetric quantification of the DPPH free radicals. The reaction of the DPPH radicals with an antioxidant compound results in the loss of the DPPH free radical properties. The loss of the DPPH free radical properties is identifiable through a color change; a discoloration marked by the formation of a yellow color from the initial violet color. Slight antioxidant activity may be visually imperceptible; such a change may still be monitored spectrophotometrically through UV-Vis analysis at λmax = 517 [40, 44, 45].
The ability of the flavonoid acetamide derivatives to scavenge the DPPH free radicals is influenced by the concentration of both the flavonoid acetamide derivative and the DPPH free radicals, the reaction time, and presence of light during the reaction. The reaction time was set at 30 min and the concentration of the DPPH free radicals was […]. The concentration of the flavonoid acetamide derivatives was varied and the experiment was carried out in the dark. The actual concentration of the DPPH free radical before the addition of the flavonoid acetamide derivative was used as the standard for the purposes of the estimation of the DPPH free radical scavenging effect. The decrease in the DPPH free radical concentration upon the addition of the flavonoid acetamide derivative was used to calculate the antioxidant activity of the flavonoid acetamide derivatives. Thus, the greater the decrease in the DPPH free radical concentration, the higher the antioxidant activity. The antioxidant activity was expressed as the % RSA. […]

[2] = In vitro bioavailability by dialysis tubing procedure (pepsin then pancreatin digestion); assay type: in vitro ADME; details: for % bioavailability after phase 1 (pepsin digestion) / % bioavailability after phase 2 (pancreatin digestion): in vitro, dialysis tubing, average of three trials ± SD; for % bioavailability after phase 1 (pepsin digestion): 2 h pepsin digestion, pH 1.0, 37 °C; for % bioavailability after phase 2 (pancreatin digestion): 4 h pancreatin digestion, pH 7.0, 37 °C; for Total in vitro bioavailability: sum of phase 1 and phase 2 % bioavailability; for % bioavailability after phase 1 (pepsin digestion): tested at 69.8 µM
Description: The in vitro bioavailability studies of the flavonoid acetamide derivatives were done in simulated gastric and intestinal fluids using the dialysis tubing procedure, as previously reported. The procedure involves two consecutive digestion stages: phase 1, which is a 2-h pepsin-based digestion followed by phase 2, which is a 4-h pancreatin based digestion. This procedure was adopted from Chimento, Adele, et al. (2013) and Grande, Fedora, et al. (2016).
Phase 1: Pepsin digestion, 2 h
The flavonoid acetamide derivatives were dissolved in dimethyl sulfoxide (DMSO) to achieve a concentration of 1.00 × 10^−3 M. The porcine pepsin was prepared to achieve 2.40 × 10^4 U porcine pepsin per 1.00 × 10^−3 L of solution. The sodium cholate solution was prepared to attain a final concentration of 2.00 w/v% while hydrochloric acid was prepared at a concentration of 8.50 × 10^−1 N, for immediate use.
The pepsin digestion phase was completed in 120 min. Into an oven dried test tube, a 1.00 mL of the newly prepared porcine pepsin solution was added, followed by 300 µL of the flavonoid acetamide solution. These two solutions were mixed prior to the addition of 3.00 mL of a fresh batch of the sodium cholate solution. The resultant solution was appropriately mixed and transferred into a dialysis tubing, which was subsequently sealed on both ends. The dialysis tubing was immersed into a freshly prepared 0.85 N hydrochloric acid solution (pH 1.0). The flask and its contents were incubated in a shaking water bath at a regulated temperature of 37 ± 0.5 °C. After 120 min, 3.00 mL of the liquid in the flask was obtained for UV-Vis analysis. The dialysis tubing was carefully recovered and readied for the second stage of the experiment, phase 2. Each sample experiment was done in triplicates.
Phase 2: Pancreatin digestion, 4 h
The following solutions were prepared for immediate use: a solution containing 8.00 × 10^−1 N sodium bicarbonate with […] of porcine pancreatin per 1.00 mL of solution. The dialysis tubing recovered following the pepsin digestion was carefully opened on one end and for the addition of […] of esterase and 1.30 mL of the fresh batch of the NaHCO3 solution. These contents were appropriately mixed, and the dialysis tubing was suitably sealed and immersed in a flask with PBS buffer (at pH 7.0). The flask was incubated for 4 h, in a shaking water bath at a regulated temperature of 37 ± 0.5 °C. At the end of the experiment, a 3.00 mL sample of the liquid in the flask was obtained for UV-Vis analysis. All sample experiments in this phase were done in triplicates.
The calibration curve for each flavonoid acetamide derivative was prepared at both pH 1.0 and pH 7.0. The triplicate samples obtained from both phase 1 and phase 2 of the digestions were characterized using UV-Vis; the data obtained was applied to the equations obtained from the calibration curves to calculate the amount of the flavonoid acetamide derivatives in the recovered samples. The percentage (%) of the recovered flavonoid acetamide derivative for each sample after both pepsin digestion (phase 1) and pancreatin digestion (phase 2) was calculated relative to the total flavonoid content used. Thus, the (%) bioavailability was determined from Equation (1) below. (1) % Bioavailability=Recovered Content/Total Content×100
The total in vitro bioavailability was defined as the sum of the % bioavailability after phase 1 and % bioavailability after phase 2 of the digestion, as shown in Equation (2). The final reported in vitro bioavailability value was the average of the three trials ± the standard deviation. (2) Total Bioavailability=phase 1 bioavailability+phase 2 bioavailability
The bioavailability of the flavonoid acetamides was determined using our previously reported in vitro dialysis tubing procedure. […]

Structure (SMILES)	IC50 [1] [µM]	% bioavailability after phase 1 (pepsin digestion) [2]	% bioavailability after phase 2 (pancreatin digestion) [2]	Total in vitro bioavailability [2]
CCOC(=O)COc1cc(OCC(N)=O)cc2oc(-c3ccc(OCC(N)=O)c(OCC(N)=O)c3)c(OCC(N)=O)c(=O)c12 [Compound 5, ethyl 2-((3,7-bis(2-amino-2-oxoethoxy)-2-(3,4-bis(2-amino-2-oxoethoxy)phenyl)-4-oxo-4H-chromen-5-yl)oxy)acetate]	198	11.52% and 11.52 ± 0.02%	13.14% and 13.14 ± 0.01%	24.66% and 24.66 ± 0.01%
NC(=O)COc1cc(OCC(N)=O)c2c(=O)c(OCC(N)=O)c(-c3ccc4c(c3)OCCO4)oc2c1 [Compound 7, 2,2′,2″-((2-(2,3-dihydrobenzo[b][1,4]dioxin-6-yl)-4-oxo-4H-chromene-3,5,7-triyl)tris(oxy))triacetamide]	59.2	16.11% and 16.11 ± 0.11%	22.01% and 22.01 ± 0.21%	38.12 ± 0.16% and 38.12%
NC(=O)COc1ccc(-c2cc(=O)c3c(O)cc(OCC(N)=O)cc3o2)cc1 [Compound 11, 2-(4-(7-(2-amino-2-oxoethoxy)-5-hydroxy-4-oxo-4H-chromen-2-yl)phenoxy)acetamide]	93.7	9.98% and 9.98 ± 0.10%	9.30% and 9.30 ± 0.09%	19.28% and 19.28 ± 0.19%

Now those with a lower IC50 [1], led by results:

IC50 [1] [µM]	% bioavailability after phase 1 (pepsin digestion) [2]	% bioavailability after phase 2 (pancreatin digestion) [2]	Total in vitro bioavailability [2]	Structure (SMILES)
31.5	6.70% and 6.70 ± 0.03%	9.26% and 9.26 ± 0.05%	15.97% and 15.97 ± 0.04%	NC(=O)COc1cc(O)c2c(=O)c(OCC(N)=O)c(-c3ccc(OCC(N)=O)c(OCC(N)=O)c3)oc2c1 [Compound 4, 2,2′-((4-(3,7-bis(2-amino-2-oxoethoxy)-5-hydroxy-4-oxo-4H-chromen-2-yl)-1,2-phenylene)bis(oxy))diacetamide]
47.1	12.51% and 12.51 ± 0.02%	18.01% and 18.01 ± 0.26%	30.51% and 30.51 ± 0.27%	NC(=O)COc1cc(O)c2c(=O)cc(-c3ccc(OCC(N)=O)c(OCC(N)=O)c3)oc2c1 [Compound 15, 2,2′-((4-(7-(2-amino-2-oxoethoxy)-5-hydroxy-4-oxo-4H-chromen-2-yl)-1,2-phenylene)bis(oxy))diacetamide]
